In BindingDB's records for patent US20240116926 (Astrazeneca, 2024):

Target: T1, Transcriptional enhancer factor TEF-3 [217-434] (Homo sapiens, UniProt Q15561)
T1 construct: 217-434
Experiment: TEAD4 FRET Assay

T1 sequence (Q15561 217-434): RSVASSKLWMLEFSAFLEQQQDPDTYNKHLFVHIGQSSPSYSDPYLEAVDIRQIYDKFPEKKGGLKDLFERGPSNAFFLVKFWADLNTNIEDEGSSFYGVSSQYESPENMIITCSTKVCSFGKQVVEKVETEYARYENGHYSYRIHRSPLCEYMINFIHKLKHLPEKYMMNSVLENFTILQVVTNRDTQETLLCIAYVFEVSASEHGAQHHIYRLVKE

C=CC(=O)N1C[C@H](C#N)[C@H](Nc2nnc(-c3ccc(C(F)(F)F)cc3)c3ccccc23)C1 (single isomer, unassigned) [US20240116926, Example 29]
IC50: 0.13 µM
